Test results as given in patent US20020160968A1, “Inhibitors of cellular niacinamide mononucleotide formation and their use in cancer therapy” (Klinge Pharma GmbH, priority 1999, published 2002).
Read-outs that look alike come from different tables or passages of the source.

Legend:
Assay type in all cases: cell-based, human
[1] = tested on: HepG2 cells; test: Cell growth under high-density conditions (SRB assay), delayed cell death (DCD); settings: for Tox. (effective (toxic) concentration) in DCD: toxic compounds, rapid decrease in cell numbers; for Tox. (effective (toxic) concentration) in DCD / minimal effective concentration: high density HepG2 cultures; for minimal effective concentration: Homo sapiens
[2] = tested on: Hep G2 cells; test: Nicotinamide Reversibility Assay / cell growth inhibition of Hep G2 cells (SRB, six days); settings: for Reversal by Niacinamide: Hep G2 cell growth inhibition with added nicotinamide; for IC50: read-out: Cell growth inhibition IC50-values [μM] Hep G2
Description: Nicotinamide Reversibility Assay
Hep G2 cells derived from a human liver carcinoma were plated at a density of 20,000 cells/ml in 12-well plastic dishes. Cultivation occurred in Richters IMEM-ZO nutrient medium with 5% fetal calf serum (FCS) in a tissue culture incubator with a gas mixture of 5% CO2 and 95% air at a temperature of 37° C. One day after plating, the culture medium was aspirated from the cells and replaced by fresh medium which contained the respective concentrations of the test compounds and where applicable of the nicotinamide. For the individual concentrations and the controls without test compounds, three-fold batches were done for each. Three days after the beginning of treatment, the medium was again renewed with the test compounds and where applicable the nicotinamide. After six days of compound incubation, the test was ended and the protein amount in the individual wells was determined with the sulforhodamin-B-method (according. to P. Skehan et al.: New Colorimetric Cytotoxicity Assay for Anticancer-Drug Screening. J. Natl. Cancer Inst. 82: 1107-1112, 1990). The IC50-values were taken from the dose-response curves and given as a comparative measurement for the activity of the test compounds.

[3] = tested on: NAD(P) synthesis from niacinamide in HepG2 cells; test: Determination of NAD(P) synthesis from [14C]niacinamide in HepG2 cells
Description: The effect of the compounds on the synthesis of NAD(P) starting from niacinamide was investigated using for example the tumor cell line HepG2 according to the technique described in the experimental part below.
The inhibition of the NAD(P) synthesis from niacinamide by these compounds was investigated in HepG2 cells as described in the section “Material and Methods”. The compounds of Table 3 a were used at a concentration of 10^−5 M. The compounds of Table 3 b were used at concentrations of at least 10^−5 M, except for Doxorubicin where the concentration was 0.3×10^−5 M. As a control, vehicle treated or untreated cells were used.
In these experiments, a pre-incubation period of 17 hrs with the compounds was used, but it turned out that the pre-incubations period could be shortened, for example to 2 hrs, or skipped completely without affecting the inhibition profile. […] Similar results were obtained with the other specific compounds.
For the detection of specific inhibitors of niacinamide mononucleotide formation the following screening assay is especially useful which comprises the following steps: incubating cultured cells selected from HepG2 cells, U-87 MG cells, MCF-7 M1 cells, Caki-1 cells, HL-60 cells, PC3 cells, U-373 MG cells, A549 cells and KG-1a cells in the presence of [^14C]niacinamide and a compound to be tested for its activity to inhibit the cellular formation of niacinamide mononucleotide; effecting lysis of the cells; isolating and separating the [^14C]-labeled compounds and measuring the amount of formed labeled niacinamide mononucleotide, NAD and NADP. More concretely, cultured cells are seeded in a defined density in culture dishes, followed by incubation in the presence of a test compound and by the addition of [^14C]niacinamide for about 0.1 to 6 hrs. The cells are then lysed with perchloric acid and the resulting extract is neutralized. Finally, the [^14C]-labeled compounds are separated by thin-layer chromatography on cellulose matrices followed by UV detection and autoradiography. Non-radioactive niacinamide derivatives are used as standards. This assay allows simple and effective screening and selection of the compounds according to the invention.
Determination of NAD(P) Synthesis from [^14C]Niacinamide
The cells were detached from 75 cm^2 flasks by removing the growth medium and adding 3 ml trypsin/EDTA solution to each flask. After about 5 minutes incubation at 37° C., when the cells were detached from the surface of the dishes, trypsinization was stopped by adding 3 ml Richter's IMEM-ZO medium containing 10% FCS. The cells were suspended by repeated pipetting. For predilution, an aliquot of 20 μl was added to 10 ml Casyton isotonic solution (No. 043-90037P, Schärfe System, Reutlingen, Germany) using a Sysmex Auto Dilutor Type AD-260 (Toa, Medical Electronics Co. Ltd., Kobe, Japan). The cell number was determined by electronic cell volume measurements and counting with a CASY 1 Cell Counter+Analyzer System, Model TTC (Schärfe System, Reutlingen, Germany) equipped with a 60 μm capillary. Following dilution in IMEM-ZO containing 10% FCS, the cells were finally seeded at a density of 4×10^6/10 ml per sample in Ø 10 cm tissue culture dishes (Greiner, Frickenhausen, Germany) and incubated at 37° C. in a humidified atmosphere of 5% CO2 in air.
After one day, when the cells were adherent to the dishes, the cultures were replenished with IMEM-ZO containing 5% FCS plus the test compound or the vehicle. […] The cells were then incubated at 37° C. for 17 hours in a humidified atmosphere of 5% CO2 in air. This preincubation period is not necessary to achieve a distinct inhibitory action of the compounds and can be shortened for example to 2 or 0 hours. After this period of time, the medium was again discarded and 4 ml HEPES-buffered IMEM-ZO containing the test compound or the vehicle and 0.5 μCi/ml [^14C]niacinamide were added to each culture for an additional 5 hours at 37° C. and 100% humidity. […]

[4] = Table 3b, at least 10^-5 M, control 374.00
[5] = Table 3b, toxic compounds at at least 10^-5 M, control 531
[6] = Homo sapiens, HepG2, 144 h, Hep G2, six days of compound incubation, SRB
[7] = Homo sapiens, 10 μM, read-out: Cellular NAD synthesis inhibition [%]
[8] = minimum concentration which, despite initial growth, induced cell death below the number of initially seeded cells, Table 2
[9] = Homo sapiens, Table 3a, compound 10^-5 M, read-out: NAD(P) % of Control
[10] = Table 3a, compound 10^-5 M, 17 hrs pre-incubation, control 302.1
[11] = Table 3a, compound 10^-5 M, control 186.4

SMILES | Tox. (effective (toxic) concentration) in DCD [1] | Reversal by Niacinamide [2] | NAD(P) % of Control ([3]; Table 3b, at least 10^-5 M) [%] | NAD(P) pmol/mg protein [3, 4] [pmol/mg protein] | NAD(P) pmol/10^6 cells [3, 5] [pmol/10^6 cells] | Influence of the addition of nicotinamide on the action on cell growth (FIGS. 20 to 27) ([2]; Hep G2) | IC50 [2, 6] [µM] | inhibition at 10 µM [3, 7] [%] | minimal effective concentration ([1]; Table 5) [µM] | minimal effective concentration [1, 8] [µM] | activity at 10 µM [3, 9] [%] | NAD(P) pmol/10^6 cells [3, 10] [pmol/10^6 cells] | NAD(P) pmol/mg protein [3, 11] [pmol/mg protein] | further results
NC(=O)c1ccc(N)nc1 [6-Aminonicotinamide, reference compound] | Tox. 10000 μM | yes | 88.0 | 329.34 | 466.98 |  |  |  |  |  |  |  |  | IC50 ([2]; Homo sapiens, HepG2, 144 h): 4 µM; inhibition at 30 µM ([3]; Homo sapiens, 30 μM, read-out: Cellular NAD synthesis inhibition [%]): 12%
[N-]=[N+]=CC(=O)CC[C@H](N)C(=O)O [6-Diazo-5-oxo-L-norleucine, reference compound] | Tox. 100 μM | no | 110.5 | 413.55 | 586.39 | no measurable influence | 3 | 0 |  |  |  |  |  | 
[N-]=[N+]=CC(=O)OC[C@H](N)C(=O)O [Azaserine, reference compound] |  | no | 100.0 | 374.23 | 530.64 | no measurable influence | 0.7 | 0 |  |  |  |  |  | 
O=C(NCCCCC1CCN(C(c2ccccc2)c2ccccc2)CC1)Nc1cccnc1 [Compound K22130, 1-[4-(1-benzhydryl-piperidine-4-yl)-butyl]-3-pyridine-3-yl-urea] |  |  |  |  |  |  | 0.08 |  | 1 | 1 |  |  |  | 
O=C(NCCCCCCNC(=O)N1CCN(C(c2ccccc2)c2ccccc2)CC1)NCc1cccnc1 [Compound K22132, 4-benzhydryl-piperazine-1-carboxylic acid-[6-(3-pyridine-3-yl-methylureido)-hexyl]-amide] |  |  |  |  |  |  | 0.02 | 99 | 0.03 | 0.1 | 1.4 | 4.1 | 2.5 | 
S=C(NCCCCCC1CCN(C(c2ccccc2)c2ccccc2)CC1)Nc1cccnc1 [Compound K22234, 1-[5-(1-benzhydryl-piperidine-4-yl)-pentyl]-3-pyridine-3-yl-thiourea] |  |  |  |  |  |  | 0.2 | 99 | 0.3 | 0.3 | 1.1 | 3.4 | 2.1 | 
O=C(CCCCCN1CCN(C(c2ccccc2)c2ccccc2)CC1)NCCc1cccnc1 [Compound K22265, 6-(4-benzhydryl-piperazine-1-yl)-hexanoic acid-(2-pyridine-3-yl-ethyl)-amide] |  |  |  |  |  |  | 2 | 98 | 3 | 3 | 2.4 | 7.3 | 4.5 | 
S=C(NCCCCC=C(c1ccccc1)c1ccccc1)N/N=C/c1cccnc1 [Compound K22299, 1-(6,6-diphenyl-5-hexenyl)-3-(pyridine-3-yl-methylene-amino)-thiourea] |  |  |  |  |  |  | 0.1 | 99 | 0.3 | 0.3 | 0.5 | 1.6 | 1.0 | 
O=C(NCCCCC1CCN(C(c2ccccc2)c2ccccc2)CC1)NCCc1cccnc1 [Compound K22339, 1-[4-(1-benzhydryl-piperidine-4-yl)-butyl]-3-(2-pyridine-3-ylethyl)-urea] |  | yes |  |  |  | can be antagonized | 0.1 |  | 0.1 | 0.3 | 0.8 | 2.5 | 1.6 | Day on which cell death occurred ([1]; concentrations of at least 0.3 μM, high density HepG2 culture): 4 days; inhibition at 1 µM ([3]; Homo sapiens, 1 μM, read-out: Cellular NAD synthesis inhibition [%]): 99%
COc1cccc2c1C(=O)c1c(O)c3c(c(O)c1C2=O)C[C@@](O)(C(=O)CO)C[C@@H]3O[C@H]1C[C@H](N)[C@H](O)[C@H](C)O1 [Doxorubicin, reference compound] |  | no |  |  |  | no measurable influence | 0.02 |  |  |  |  |  |  | inhibition at 3 µM ([3]; Homo sapiens, 3 μM, read-out: Cellular NAD synthesis inhibition [%]): 0%; activity at 3 µM ([3]; Homo sapiens, Table 3b, 0.3×10^-5 M, read-out: NAD(P) % of Control): 102%
NC(=O)c1c[se]c([C@@H]2O[C@H](CO)[C@@H](O)[C@H]2O)n1 [Selenazofurin, reference compound] | Tox. 30 μM | no | 70.2 | 372.29 | 372.29 | no measurable influence |  |  |  |  |  |  |  | IC50 ([2]; Hep G2, six days of compound incubation, SRB): 0.7 µM; Cellular NAD synthesis inhibition [%] ([3]; 10 μM): 30 (10 μM) %
NC(=O)c1csc([C@@H]2O[C@H](CO)[C@@H](O)[C@H]2O)n1 [Tiazofurin, reference compound] | Tox. 300 μM | no | 78.1 | 292.30 | 414.47 | no measurable influence |  |  |  |  |  |  |  | IC50 ([2]; Homo sapiens, HepG2, 144 h): 10 µM; inhibition at 100 µM ([3]; Homo sapiens, 100 μM, read-out: Cellular NAD synthesis inhibition [%]): 22%
